In ChEMBL document CHEMBL5360622, “Leucettinibs, a Class of DYRK/CLK Kinase Inhibitors Inspired by the Marine Sponge Natural Product Leucettamine B” (J Med Chem, 2023):

Columns and labels:
[1] = target: T1, Dual specificity tyrosine-phosphorylation-regulated kinase 3 (Homo sapiens, UniProt O43781)
T1 sequence (O43781 whole entry): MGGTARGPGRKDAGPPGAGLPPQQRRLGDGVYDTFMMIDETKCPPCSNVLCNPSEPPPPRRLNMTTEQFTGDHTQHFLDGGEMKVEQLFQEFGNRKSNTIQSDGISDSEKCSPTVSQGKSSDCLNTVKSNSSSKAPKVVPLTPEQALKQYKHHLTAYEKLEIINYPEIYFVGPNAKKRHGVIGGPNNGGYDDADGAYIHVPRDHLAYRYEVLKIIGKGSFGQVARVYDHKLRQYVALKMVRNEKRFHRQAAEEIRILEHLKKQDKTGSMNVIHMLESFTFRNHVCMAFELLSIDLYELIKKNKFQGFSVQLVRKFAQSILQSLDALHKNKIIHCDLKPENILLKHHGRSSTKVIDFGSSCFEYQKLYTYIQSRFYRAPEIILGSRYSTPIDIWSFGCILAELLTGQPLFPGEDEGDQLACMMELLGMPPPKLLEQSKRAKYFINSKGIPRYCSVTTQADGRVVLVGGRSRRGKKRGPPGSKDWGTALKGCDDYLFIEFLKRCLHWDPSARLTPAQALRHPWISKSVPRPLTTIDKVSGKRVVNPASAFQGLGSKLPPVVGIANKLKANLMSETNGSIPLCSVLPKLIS

[2] = target: T2, Dual specificity tyrosine-phosphorylation-regulated kinase 2 (Homo sapiens, UniProt Q92630)
T2 sequence (Q92630 whole entry): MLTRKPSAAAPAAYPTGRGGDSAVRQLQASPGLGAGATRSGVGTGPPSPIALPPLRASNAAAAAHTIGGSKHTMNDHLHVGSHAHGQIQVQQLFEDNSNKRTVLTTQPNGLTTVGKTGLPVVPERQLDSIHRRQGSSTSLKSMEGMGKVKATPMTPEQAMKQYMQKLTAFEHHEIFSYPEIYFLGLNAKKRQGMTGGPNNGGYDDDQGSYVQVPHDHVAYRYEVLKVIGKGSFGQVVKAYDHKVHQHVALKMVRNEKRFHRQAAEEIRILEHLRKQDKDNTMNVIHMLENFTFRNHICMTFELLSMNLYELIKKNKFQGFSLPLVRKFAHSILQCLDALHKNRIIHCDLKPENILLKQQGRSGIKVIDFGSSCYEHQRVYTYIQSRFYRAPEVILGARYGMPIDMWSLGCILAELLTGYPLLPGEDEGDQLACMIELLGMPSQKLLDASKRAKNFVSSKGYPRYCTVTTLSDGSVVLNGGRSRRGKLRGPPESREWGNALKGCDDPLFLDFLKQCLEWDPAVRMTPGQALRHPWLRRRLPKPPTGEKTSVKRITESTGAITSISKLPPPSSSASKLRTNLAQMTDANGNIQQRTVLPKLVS

[3] = target: T3, Glycogen synthase kinase-3 beta (Homo sapiens, UniProt P49841); assay type: cell-based, Sf9
Target sequence in this assay (P49841 whole entry): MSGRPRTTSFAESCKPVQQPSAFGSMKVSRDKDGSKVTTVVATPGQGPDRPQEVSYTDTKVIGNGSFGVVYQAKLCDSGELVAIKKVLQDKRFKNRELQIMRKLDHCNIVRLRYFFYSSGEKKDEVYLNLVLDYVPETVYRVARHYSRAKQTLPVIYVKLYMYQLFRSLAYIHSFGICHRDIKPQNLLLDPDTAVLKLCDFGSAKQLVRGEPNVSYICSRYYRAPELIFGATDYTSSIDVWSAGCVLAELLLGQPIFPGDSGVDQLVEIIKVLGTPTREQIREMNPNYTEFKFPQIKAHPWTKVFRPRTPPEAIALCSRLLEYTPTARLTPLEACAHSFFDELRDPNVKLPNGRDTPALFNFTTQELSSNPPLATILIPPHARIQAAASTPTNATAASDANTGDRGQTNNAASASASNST

[4] = target: Cyclin-dependent kinase 5/CDK5 activator 1 (Homo sapiens, UniProt Q00535); assay type: cell-based, Sf9
Sequence of Cyclin-dependent kinase 5/CDK5 activator 1 (Q00535 whole entry, canonical isoform): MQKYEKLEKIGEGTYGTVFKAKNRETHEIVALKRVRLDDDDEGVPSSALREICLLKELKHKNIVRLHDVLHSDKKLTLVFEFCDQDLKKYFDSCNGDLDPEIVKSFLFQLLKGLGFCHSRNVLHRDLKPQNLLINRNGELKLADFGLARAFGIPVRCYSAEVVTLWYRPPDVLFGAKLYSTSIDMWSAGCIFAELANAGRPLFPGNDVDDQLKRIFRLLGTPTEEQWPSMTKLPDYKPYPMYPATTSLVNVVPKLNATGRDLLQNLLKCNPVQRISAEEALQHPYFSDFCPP
Sequence of Cyclin-dependent kinase 5/CDK5 activator 1 (Q15078 whole entry, further chain, canonical isoform): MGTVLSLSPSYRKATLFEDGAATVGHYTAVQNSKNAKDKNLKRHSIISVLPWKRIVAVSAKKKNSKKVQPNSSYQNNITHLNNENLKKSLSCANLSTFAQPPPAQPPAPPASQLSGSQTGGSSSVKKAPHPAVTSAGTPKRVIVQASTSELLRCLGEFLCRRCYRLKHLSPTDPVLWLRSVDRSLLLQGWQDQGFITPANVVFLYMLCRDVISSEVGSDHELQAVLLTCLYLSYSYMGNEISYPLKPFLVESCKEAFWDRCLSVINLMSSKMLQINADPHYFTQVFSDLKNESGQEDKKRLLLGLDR

[5] = target: T4, Casein kinase I isoform epsilon (Homo sapiens, UniProt P49674)
Target sequence in this assay (P49674 whole entry, canonical isoform): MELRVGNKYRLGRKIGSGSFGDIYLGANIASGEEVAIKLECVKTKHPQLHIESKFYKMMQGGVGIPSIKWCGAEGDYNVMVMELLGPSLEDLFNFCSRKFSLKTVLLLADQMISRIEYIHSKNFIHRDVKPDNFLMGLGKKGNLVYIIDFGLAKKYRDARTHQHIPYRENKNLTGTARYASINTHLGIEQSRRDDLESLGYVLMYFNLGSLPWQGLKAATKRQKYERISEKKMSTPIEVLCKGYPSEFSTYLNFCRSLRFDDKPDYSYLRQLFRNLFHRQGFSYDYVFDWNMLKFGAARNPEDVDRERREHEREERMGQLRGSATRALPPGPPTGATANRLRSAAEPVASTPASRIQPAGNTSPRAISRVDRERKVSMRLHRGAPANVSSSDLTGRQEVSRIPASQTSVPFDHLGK

[6] = target: T5, Dual specificity protein kinase CLK1 (Homo sapiens, UniProt P49759); assay type: cell-based, Sf9
Target sequence in this assay (P49759 whole entry): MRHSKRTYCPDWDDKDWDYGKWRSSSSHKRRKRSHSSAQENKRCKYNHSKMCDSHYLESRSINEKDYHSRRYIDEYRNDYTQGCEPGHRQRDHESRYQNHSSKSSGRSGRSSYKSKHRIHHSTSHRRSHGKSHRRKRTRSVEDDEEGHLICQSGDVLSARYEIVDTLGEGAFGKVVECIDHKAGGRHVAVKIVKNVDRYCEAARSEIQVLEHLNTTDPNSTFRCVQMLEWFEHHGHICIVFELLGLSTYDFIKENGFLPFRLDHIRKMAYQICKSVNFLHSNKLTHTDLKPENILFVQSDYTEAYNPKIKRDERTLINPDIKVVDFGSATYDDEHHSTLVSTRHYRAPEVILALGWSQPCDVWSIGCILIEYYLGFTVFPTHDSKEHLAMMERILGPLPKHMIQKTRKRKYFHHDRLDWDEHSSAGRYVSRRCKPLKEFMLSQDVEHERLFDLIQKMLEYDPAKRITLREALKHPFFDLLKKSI

[7] = target: T6, Dual specificity tyrosine-phosphorylation-regulated kinase 4 (Homo sapiens, UniProt Q9NR20)
T6 sequence (Q9NR20 whole entry): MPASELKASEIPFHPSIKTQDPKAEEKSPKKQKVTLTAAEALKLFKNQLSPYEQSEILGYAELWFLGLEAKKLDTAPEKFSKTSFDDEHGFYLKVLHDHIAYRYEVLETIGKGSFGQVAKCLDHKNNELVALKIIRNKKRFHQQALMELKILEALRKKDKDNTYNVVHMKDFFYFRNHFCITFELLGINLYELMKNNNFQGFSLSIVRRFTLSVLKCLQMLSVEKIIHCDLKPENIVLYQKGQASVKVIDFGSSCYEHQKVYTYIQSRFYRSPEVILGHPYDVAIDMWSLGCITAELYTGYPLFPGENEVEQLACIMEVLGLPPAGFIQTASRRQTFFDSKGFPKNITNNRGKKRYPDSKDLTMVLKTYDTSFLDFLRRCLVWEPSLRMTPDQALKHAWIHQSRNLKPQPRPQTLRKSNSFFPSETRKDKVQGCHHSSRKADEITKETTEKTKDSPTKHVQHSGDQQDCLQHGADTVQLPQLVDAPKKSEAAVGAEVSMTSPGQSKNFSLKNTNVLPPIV

[8] = target: Dual specificity tyrosine-phosphorylation-regulated kinase 1A (Homo sapiens, UniProt Q13627)
[9] = target: Dual specificity protein kinase CLK4 (Homo sapiens, UniProt Q9HAZ1)
Sequence of Dual specificity protein kinase CLK4 (Q9HAZ1 whole entry): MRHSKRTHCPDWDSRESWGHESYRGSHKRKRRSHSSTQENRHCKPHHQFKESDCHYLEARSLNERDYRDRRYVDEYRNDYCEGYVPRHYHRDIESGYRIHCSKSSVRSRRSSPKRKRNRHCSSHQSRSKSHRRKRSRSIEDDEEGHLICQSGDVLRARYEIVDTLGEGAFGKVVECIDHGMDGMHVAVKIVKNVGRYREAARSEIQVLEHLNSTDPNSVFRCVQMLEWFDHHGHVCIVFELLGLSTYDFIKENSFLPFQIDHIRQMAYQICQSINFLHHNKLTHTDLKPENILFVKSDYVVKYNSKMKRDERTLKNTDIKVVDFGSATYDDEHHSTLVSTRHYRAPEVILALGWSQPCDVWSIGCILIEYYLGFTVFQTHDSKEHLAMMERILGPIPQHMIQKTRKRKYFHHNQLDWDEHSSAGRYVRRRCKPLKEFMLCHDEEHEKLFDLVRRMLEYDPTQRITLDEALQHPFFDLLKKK

[10] = target: T7, Dual specificity protein kinase CLK3 (Homo sapiens, UniProt P49761); assay type: cell-based, Sf9
Target sequence in this assay (P49761 whole entry): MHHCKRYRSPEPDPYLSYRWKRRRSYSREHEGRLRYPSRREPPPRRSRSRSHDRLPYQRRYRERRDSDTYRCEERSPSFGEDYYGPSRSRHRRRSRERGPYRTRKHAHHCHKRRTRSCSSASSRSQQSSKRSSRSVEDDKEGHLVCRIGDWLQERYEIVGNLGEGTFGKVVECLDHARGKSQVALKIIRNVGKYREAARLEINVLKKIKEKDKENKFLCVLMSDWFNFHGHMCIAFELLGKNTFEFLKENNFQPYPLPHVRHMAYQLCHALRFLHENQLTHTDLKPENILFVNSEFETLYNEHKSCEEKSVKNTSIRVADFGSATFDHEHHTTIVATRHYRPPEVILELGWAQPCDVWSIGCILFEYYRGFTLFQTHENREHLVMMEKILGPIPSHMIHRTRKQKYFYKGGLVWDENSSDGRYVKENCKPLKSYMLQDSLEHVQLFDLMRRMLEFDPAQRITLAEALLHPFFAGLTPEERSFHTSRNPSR

[11] = target: Dual specificity protein kinase CLK2 (Homo sapiens, UniProt P49760)
Sequence of Dual specificity protein kinase CLK2 (P49760 whole entry): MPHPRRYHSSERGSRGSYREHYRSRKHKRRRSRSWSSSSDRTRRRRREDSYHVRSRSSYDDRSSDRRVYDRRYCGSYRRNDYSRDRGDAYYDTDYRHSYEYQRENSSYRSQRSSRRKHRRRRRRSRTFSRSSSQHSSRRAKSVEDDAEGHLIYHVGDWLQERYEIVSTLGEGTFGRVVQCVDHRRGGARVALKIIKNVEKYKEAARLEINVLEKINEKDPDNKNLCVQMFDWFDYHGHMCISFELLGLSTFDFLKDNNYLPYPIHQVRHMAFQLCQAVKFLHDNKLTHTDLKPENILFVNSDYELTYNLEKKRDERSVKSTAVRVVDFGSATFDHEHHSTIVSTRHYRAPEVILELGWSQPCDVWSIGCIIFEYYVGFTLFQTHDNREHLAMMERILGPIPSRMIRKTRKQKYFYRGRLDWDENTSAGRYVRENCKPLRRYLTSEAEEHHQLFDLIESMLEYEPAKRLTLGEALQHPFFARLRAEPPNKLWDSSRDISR

[12] = target: T7, Dual specificity protein kinase CLK3; conditions: dose 10.0 µM
Target sequence in this assay (P49761 whole entry, looked up): as the sequence (P49761 whole entry) above

[13] = target: T5, Dual specificity protein kinase CLK1; conditions: dose 10.0 µM
[14] = target: Serine/threonine-protein kinase pim-3 (Homo sapiens) (UniProt Q86V86); conditions: dose 10.0 µM
[15] = target: Homeodomain-interacting protein kinase 2 (Homo sapiens) (UniProt Q9H2X6); conditions: dose 10.0 µM
[16] = target: T8, Mitogen-activated protein kinase 15 (Homo sapiens) (UniProt Q8TD08); conditions: dose 10.0 µM
T8 sequence (whole entry): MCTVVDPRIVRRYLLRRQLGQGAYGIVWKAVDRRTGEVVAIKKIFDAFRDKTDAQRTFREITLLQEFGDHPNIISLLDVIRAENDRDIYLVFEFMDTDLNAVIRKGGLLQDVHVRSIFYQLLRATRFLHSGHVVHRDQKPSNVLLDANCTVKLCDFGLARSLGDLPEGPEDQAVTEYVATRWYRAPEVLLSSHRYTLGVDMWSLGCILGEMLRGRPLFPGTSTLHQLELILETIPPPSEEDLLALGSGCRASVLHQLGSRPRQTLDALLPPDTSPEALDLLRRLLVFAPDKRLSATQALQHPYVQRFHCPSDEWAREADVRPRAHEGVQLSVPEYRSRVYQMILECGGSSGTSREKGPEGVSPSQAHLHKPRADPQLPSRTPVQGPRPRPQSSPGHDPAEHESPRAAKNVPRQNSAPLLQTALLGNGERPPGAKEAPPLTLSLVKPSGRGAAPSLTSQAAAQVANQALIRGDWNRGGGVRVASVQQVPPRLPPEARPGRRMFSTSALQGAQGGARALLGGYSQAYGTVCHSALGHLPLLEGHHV

[17] = target: Casein kinase I isoform delta (Homo sapiens) (UniProt P48730); conditions: dose 10.0 µM
Sequence of Casein kinase I isoform delta (Homo sapiens) (P48730 whole entry, looked up, canonical isoform): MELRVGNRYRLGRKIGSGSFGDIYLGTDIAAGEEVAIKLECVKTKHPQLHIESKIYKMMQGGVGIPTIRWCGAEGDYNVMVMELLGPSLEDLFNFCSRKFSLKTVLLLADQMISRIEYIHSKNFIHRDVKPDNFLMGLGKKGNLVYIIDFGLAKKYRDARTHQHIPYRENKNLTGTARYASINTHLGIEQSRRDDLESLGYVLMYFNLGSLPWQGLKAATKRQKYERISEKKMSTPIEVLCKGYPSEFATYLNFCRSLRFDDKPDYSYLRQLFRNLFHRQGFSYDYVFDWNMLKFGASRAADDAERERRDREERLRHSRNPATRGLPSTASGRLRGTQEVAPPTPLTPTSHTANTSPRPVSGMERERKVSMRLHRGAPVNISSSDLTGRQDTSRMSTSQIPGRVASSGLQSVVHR

[18] = target: T4, Casein kinase I isoform epsilon; conditions: dose 10.0 µM
[19] = target: Serine/threonine-protein kinase haspin (Homo sapiens) (UniProt Q8TF76); conditions: dose 10.0 µM
[20] = target: Casein kinase II subunit alpha (Homo sapiens) (UniProt P68400); conditions: dose 10.0 µM
[21] = target: Calcium/calmodulin-dependent protein kinase kinase 2 (Homo sapiens) (UniProt Q96RR4); conditions: dose 10.0 µM
[22] = target: Aurora kinase A (Homo sapiens) (UniProt O14965); conditions: dose 10.0 µM
[23] = target: Myotonin-protein kinase (Homo sapiens) (UniProt Q09013); conditions: dose 10.0 µM
[24] = target: T3, Glycogen synthase kinase-3 beta; conditions: dose 10.0 µM
[25] = target: Dual specificity tyrosine-phosphorylation-regulated kinase 2 (Homo sapiens) (UniProt Q92630); conditions: dose 10.0 µM
[26] = target: AP2-associated protein kinase 1 (Homo sapiens) (UniProt Q2M2I8); conditions: dose 10.0 µM
[27] = target: BMP-2-inducible protein kinase (Homo sapiens) (UniProt Q9NSY1); conditions: dose 10.0 µM

Cn1cnc2cc(/C=C3\N=C(NC4CCCCC4)NC3=O)ccc21
IC50 [1]: > 10 µM | IC50 [2]: > 10 µM | IC50 [3]: > 10 µM | IC50 [4]: > 10 µM | IC50 [5]: > 10 µM | IC50 [6]: > 10 µM | IC50 [7]: > 10 µM | IC50 [8]: > 10 µM | IC50 [9]: > 10 µM | IC50 [10]: > 10 µM | IC50 [11]: > 10 µM

CN1CCN(C(=O)C(C)(C)c2ccc(C(=O)Nc3cn4cc(-c5ccncc5)ccc4n3)cc2)CC1
ΔTm [12]: 15 °C | ΔTm [13]: 15.7 °C

O=C1NC(NC2CCCCCC2)=N/C1=C\c1ccc2[nH]ccc2c1
IC50 [1]: > 10 µM | IC50 [2]: > 10 µM | IC50 [3]: > 10 µM | IC50 [4]: > 10 µM | IC50 [5]: > 10 µM | IC50 [6]: > 10 µM | IC50 [7]: > 10 µM | IC50 [8]: > 10 µM | IC50 [9]: > 10 µM | IC50 [10]: > 10 µM | IC50 [11]: > 10 µM

Cn1ccc2cc(/C=C3\N=C(NC4CCCCC4)NC3=O)ccc21
IC50 [1]: > 10 µM | IC50 [2]: > 10 µM | IC50 [3]: > 10 µM | IC50 [4]: > 10 µM | IC50 [5]: > 10 µM | IC50 [6]: > 10 µM | IC50 [7]: > 10 µM | IC50 [8]: > 10 µM | IC50 [9]: > 10 µM | IC50 [10]: > 10 µM | IC50 [11]: > 10 µM

CN[C@@H]1C[C@H]2O[C@@](C)([C@@H]1OC)n1c3ccccc3c3c4c(c5c6ccccc6n2c5c31)C(=O)NC4
ΔTm [14]: 11.9 °C | ΔTm [15]: 4.5 °C | ΔTm [16]: 14 °C

Cn1cnc2cc(/C=C3\N=C(NC4CCCCCC4)NC3=O)ccc21
IC50 [1]: > 10 µM | IC50 [2]: > 10 µM | IC50 [3]: > 10 µM | IC50 [4]: > 10 µM | IC50 [5]: > 10 µM | IC50 [6]: > 10 µM | IC50 [7]: > 10 µM | IC50 [8]: > 10 µM | IC50 [9]: > 10 µM | IC50 [10]: > 10 µM | IC50 [11]: > 10 µM

Nc1nccc(-c2c(-c3ccc(F)cc3)ncn2C2CCCCC2)n1
ΔTm [17]: 9 °C | ΔTm [18]: 8 °C

O=C1NC(NC2CCCCCC2)=N/C1=C\c1ccc2c(c1)OCO2
IC50 [1]: 3.19 µM | IC50 [2]: 5.08 µM | IC50 [3]: > 10 µM | IC50 [4]: > 10 µM | IC50 [5]: > 10 µM | IC50 [6]: 0.042 µM | IC50 [7]: 1.23 µM | IC50 [8]: 0.047 µM | IC50 [9]: 0.02 µM | IC50 [10]: 4.44 µM | IC50 [11]: 0.826 µM

O=C1NC(NC23CC4CC(CC(C4)C2)C3)=N/C1=C\c1ccc2[nH]ccc2c1
IC50 [1]: > 10 µM | IC50 [2]: > 10 µM | IC50 [3]: > 10 µM | IC50 [4]: > 10 µM | IC50 [5]: > 10 µM | IC50 [6]: 8.83 µM | IC50 [7]: > 10 µM | IC50 [8]: 0.957 µM | IC50 [9]: 2.55 µM | IC50 [10]: > 10 µM | IC50 [11]: 3.61 µM

Cn1ccc2cc(/C=C3\N=C(NC4CCCCCC4)NC3=O)ccc21
IC50 [1]: > 10 µM | IC50 [2]: > 10 µM | IC50 [3]: > 10 µM | IC50 [4]: > 10 µM | IC50 [5]: > 10 µM | IC50 [6]: > 10 µM | IC50 [7]: > 10 µM | IC50 [8]: > 10 µM | IC50 [9]: > 10 µM | IC50 [10]: > 10 µM | IC50 [11]: > 10 µM

Cn1ccc2cc(/C=C3\N=C(NC45CC6CC(CC(C6)C4)C5)NC3=O)ccc21
IC50 [1]: > 10 µM | IC50 [2]: > 10 µM | IC50 [3]: > 10 µM | IC50 [4]: > 10 µM | IC50 [5]: > 10 µM | IC50 [6]: > 10 µM | IC50 [7]: > 10 µM | IC50 [8]: > 10 µM | IC50 [9]: > 10 µM | IC50 [10]: > 10 µM | IC50 [11]: > 10 µM

O=C1NC(NC23CC4CC(CC(C4)C2)C3)=N/C1=C\c1ccc2ncsc2c1
ΔTm [14]: 5.5 °C | ΔTm [12]: 9.7 °C | ΔTm [15]: 5.2 °C | ΔTm [19]: 7.6 °C | ΔTm [16]: 10.3 °C | ΔTm [20]: 9.7 °C | ΔTm [13]: 19.9 °C | ΔTm [17]: 5 °C | ΔTm [21]: 10.2 °C | ΔTm [22]: 7.5 °C | ΔTm [23]: 5.6 °C | ΔTm [24]: 6.5 °C | ΔTm [25]: 12.4 °C | ΔTm [18]: 5.5 °C | ΔTm [26]: 6.1 °C | ΔTm [27]: 9.8 °C

O=C1NC(NC2CCCCCC2)=N/C1=C\c1ccc2ncoc2c1
IC50 [1]: 1.14 µM | IC50 [2]: 0.566 µM | IC50 [3]: 3.02 µM | IC50 [4]: > 10 µM | IC50 [5]: > 10 µM | IC50 [6]: 0.018 µM | IC50 [7]: 0.617 µM | IC50 [8]: 0.013 µM | IC50 [9]: 0.011 µM | IC50 [10]: 0.285 µM | IC50 [11]: 0.174 µM
